Assays:
Assay in all cases: relative viability (nuclei count vs DMSO), 5 days (fraction); higher = more cells survive
[1] = tested on: PC-3 [JPC-3]
Summary of the method: (§1)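 After 5 days of treatment, lung cancer cells in 1536-well plates were fixed and stained in a single step (final 0.05% Triton X-100, 1% formaldehyde, 1 ug/ml Hoechst) and their nuclei counted on 4× images. Treatment had been applied by pin tool the day after seeding as one drug alone or as a fixed anchor-drug dose with five library-drug doses (not always all listed) in √10 steps. Relative viability is the nuclei count of treated wells divided by that of vehicle wells, and values are medians of duplicate plates.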

[2] = tested on: RERF-LC-KJ
Summary of the method: as §1

[3] = tested on: NCI-H2087
Summary of the method: as §1

[4] = tested on: HCC-78
Summary of the method: as §1

[5] = tested on: LOU-NH91
Summary of the method: as §1

[6] = tested on: NCI-H1793
Summary of the method: as §1

[7] = tested on: NCI-H1755
Summary of the method: as §1

[8] = tested on: NCI-H1944
Summary of the method: as §1

[9] = tested on: NCI-H1651
Summary of the method: as §1

[10] = tested on: HCC-366
Summary of the method: as §1

[11] = tested on: NCI-H2228
Summary of the method: as §1

[12] = tested on: ChaGo-K-1
Summary of the method: as §1

[13] = tested on: NCI-H1395
Summary of the method: as §1

[14] = tested on: NCI-H2170
Summary of the method: as §1

[15] = tested on: NCI-H3122
Summary of the method: as §1

[16] = tested on: LU99A
Summary of the method: as §1

[17] = tested on: LC-2-ad
Summary of the method: as §1

[18] = tested on: NCI-H2405
Summary of the method: as §1

[19] = tested on: NCI-H460
Summary of the method: as §1

[20] = tested on: CAL-12T
Summary of the method: as §1

[21] = tested on: UMC-11
Summary of the method: as §1

## Cc1sc2c(c1C)C(c1ccc(Cl)cc1)=N[C@@H](CC(=O)OC(C)(C)C)c1nnc(C)n1-2 [JQ1] + CC(=O)Nc1cccc(-n2c(=O)n(C3CC3)c(=O)c3c(Nc4ccc(I)cc4F)n(C)c(=O)c(C)c32)c1 [Trametinib] (partner 0.02 µM)
[1]; first compound 0.04 µM
  relative viability: 0.683
[1]; first compound 0.1265 µM
  relative viability: 0.609
[1]; first compound 0.4 µM
  relative viability: 0.49
[1]; first compound 1.265 µM
  relative viability: 0.475
[1]; first compound 4 µM
  relative viability: 0.461
[2]; first compound 0.04 µM
  relative viability: 0.907
[2]; first compound 0.1265 µM
  relative viability: 0.803
[2]; first compound 0.4 µM
  relative viability: 0.817
[2]; first compound 1.265 µM
  relative viability: 0.532
[2]; first compound 4 µM
  relative viability: 0.449
[3]; first compound 0.04 µM
  relative viability: 0.192
[3]; first compound 0.1265 µM
  relative viability: 0.179
[3]; first compound 0.4 µM
  relative viability: 0.18
[3]; first compound 1.265 µM
  relative viability: 0.142
[3]; first compound 4 µM
  relative viability: 0.167
[4]; first compound 0.04 µM
  relative viability: 0.791
[4]; first compound 0.1265 µM
  relative viability: 0.603
[4]; first compound 0.4 µM
  relative viability: 0.572
[4]; first compound 1.265 µM
  relative viability: 0.462
[4]; first compound 4 µM
  relative viability: 0.367
[5]; first compound 0.04 µM
  relative viability: 0.774
[5]; first compound 0.1265 µM
  relative viability: 0.719
[5]; first compound 0.4 µM
  relative viability: 0.603
[5]; first compound 1.265 µM
  relative viability: 0.479
[5]; first compound 4 µM
  relative viability: 0.414
[6]; first compound 0.04 µM
  relative viability: 0.483
[6]; first compound 0.1265 µM
  relative viability: 0.429
[6]; first compound 0.4 µM
  relative viability: 0.595
[6]; first compound 1.265 µM
  relative viability: 0.481
[6]; first compound 4 µM
  relative viability: 0.5
[7]; first compound 0.04 µM
  relative viability: 0.796
[7]; first compound 0.1265 µM
  relative viability: 0.809
[7]; first compound 0.4 µM
  relative viability: 0.8
[7]; first compound 1.265 µM
  relative viability: 0.674
[7]; first compound 4 µM
  relative viability: 0.65
[8]; first compound 0.04 µM
  relative viability: 0.409
[8]; first compound 0.1265 µM
  relative viability: 0.394
[8]; first compound 0.4 µM
  relative viability: 0.305
[8]; first compound 1.265 µM
  relative viability: 0.288
[8]; first compound 4 µM
  relative viability: 0.278
[9]; first compound 0.04 µM
  relative viability: 0.782
[9]; first compound 0.1265 µM
  relative viability: 0.742
[9]; first compound 0.4 µM
  relative viability: 0.603
[9]; first compound 1.265 µM
  relative viability: 0.496
[9]; first compound 4 µM
  relative viability: 0.437
[10]; first compound 0.04 µM
  relative viability: 0.407
[10]; first compound 0.4 µM
  relative viability: 0.372
[10]; first compound 1.265 µM
  relative viability: 0.235
[10]; first compound 4 µM
  relative viability: 0.237
[11]; first compound 0.04 µM
  relative viability: 0.483
[11]; first compound 0.1265 µM
  relative viability: 0.396
[11]; first compound 0.4 µM
  relative viability: 0.424
[11]; first compound 1.265 µM
  relative viability: 0.276
[11]; first compound 4 µM
  relative viability: 0.181
[12]; first compound 0.04 µM
  relative viability: 0.943
[12]; first compound 0.1265 µM
  relative viability: 0.928
[12]; first compound 0.4 µM
  relative viability: 0.797
[12]; first compound 1.265 µM
  relative viability: 0.641
[12]; first compound 4 µM
  relative viability: 0.483
[13]; first compound 0.04 µM
  relative viability: 1.03
[13]; first compound 0.1265 µM
  relative viability: 0.991
[13]; first compound 0.4 µM
  relative viability: 0.912
[13]; first compound 1.265 µM
  relative viability: 0.628
[13]; first compound 4 µM
  relative viability: 0.578
[14]; first compound 0.04 µM
  relative viability: 0.861
[14]; first compound 0.1265 µM
  relative viability: 0.843
[14]; first compound 0.4 µM
  relative viability: 0.637
[14]; first compound 1.265 µM
  relative viability: 0.585
[14]; first compound 4 µM
  relative viability: 0.519
[15]; first compound 0.04 µM
  relative viability: 0.219
[15]; first compound 0.1265 µM
  relative viability: 0.179
[15]; first compound 0.4 µM
  relative viability: 0.322
[15]; first compound 1.265 µM
  relative viability: 0.317
[15]; first compound 4 µM
  relative viability: 0.304
[16]; first compound 0.04 µM
  relative viability: 0.544
[16]; first compound 0.4 µM
  relative viability: 0.335
[16]; first compound 1.265 µM
  relative viability: 0.209
[16]; first compound 4 µM
  relative viability: 0.194
[17]; first compound 0.04 µM
  relative viability: 0.866
[17]; first compound 0.1265 µM
  relative viability: 0.918
[17]; first compound 0.4 µM
  relative viability: 0.708
[17]; first compound 1.265 µM
  relative viability: 0.479
[17]; first compound 4 µM
  relative viability: 0.303
[18]; first compound 0.04 µM
  relative viability: 0.627
[18]; first compound 0.4 µM
  relative viability: 0.601
[18]; first compound 1.265 µM
  relative viability: 0.422
[18]; first compound 4 µM
  relative viability: 0.332
[19]; first compound 0.04 µM
  relative viability: 0.129
[19]; first compound 0.1265 µM
  relative viability: 0.0734
[19]; first compound 0.4 µM
  relative viability: 0.0575
[19]; first compound 1.265 µM
  relative viability: 0.0314
[19]; first compound 4 µM
  relative viability: 0.0297
[20]; first compound 0.04 µM
  relative viability: 0.354
[20]; first compound 0.1265 µM
  relative viability: 0.29
[20]; first compound 0.4 µM
  relative viability: 0.207
[20]; first compound 1.265 µM
  relative viability: 0.193
[20]; first compound 4 µM
  relative viability: 0.208
[21]; first compound 0.04 µM
  relative viability: 0.588
[21]; first compound 0.1265 µM
  relative viability: 0.543
[21]; first compound 0.4 µM
  relative viability: 0.377
[21]; first compound 1.265 µM
  relative viability: 0.204
[21]; first compound 4 µM
  relative viability: 0.194

Reference: the supplement of paper PMC10307832
